Data from patent publication US20210238170A1, “5,5-Difluoro- and 5-Fluoro-5-Methyl-C-Glycoside Derivatives Useful As Dual SGLT1 / SGLT2 Modulators” (Janssen Pharmaceutica NV, priority 2018, published 2021).
Where two headings read alike, the source gives them in different places.

Legend:
human SGLT2 = molecular target: T1, human SGLT2 (Homo sapiens, UniProt P31639); test: SGLT2 in vitro assay: Na-dependent 14C-AMG uptake in CHO-K1 cells stably expressing human SGLT2; type: cell-based; conditions: for inhibition at 0.3 µM: read-out: SGLT2 % Inh @ 0.3 μM
T1 construct: expressed in transfected cells
T1 sequence (P31639 1-672): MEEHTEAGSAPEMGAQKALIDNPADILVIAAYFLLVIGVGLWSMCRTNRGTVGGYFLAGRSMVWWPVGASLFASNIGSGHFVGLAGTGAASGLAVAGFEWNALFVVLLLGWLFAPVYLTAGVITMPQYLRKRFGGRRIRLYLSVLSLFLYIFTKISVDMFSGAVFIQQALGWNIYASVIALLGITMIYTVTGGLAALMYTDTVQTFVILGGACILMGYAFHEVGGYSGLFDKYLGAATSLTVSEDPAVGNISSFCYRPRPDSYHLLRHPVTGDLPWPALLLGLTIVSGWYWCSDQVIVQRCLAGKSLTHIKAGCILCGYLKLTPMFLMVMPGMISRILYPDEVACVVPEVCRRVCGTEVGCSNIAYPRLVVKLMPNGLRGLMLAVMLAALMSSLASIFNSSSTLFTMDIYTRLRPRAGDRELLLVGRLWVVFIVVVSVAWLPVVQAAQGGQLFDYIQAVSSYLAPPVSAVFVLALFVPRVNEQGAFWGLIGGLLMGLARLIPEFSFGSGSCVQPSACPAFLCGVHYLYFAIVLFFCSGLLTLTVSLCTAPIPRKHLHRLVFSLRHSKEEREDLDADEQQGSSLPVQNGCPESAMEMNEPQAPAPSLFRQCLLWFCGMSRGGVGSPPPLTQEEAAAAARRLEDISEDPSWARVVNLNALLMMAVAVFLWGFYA
Procedure, shortened: (§1)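 Sodium-dependent uptake of 14C-α-methyl-glucopyranoside ([…]) over 2 h at 37°C was counted by scintillation in stable human SGLT2- or SGLT1-CHO-K1 lines pretreated with 10 mM Na-butyrate. Compounds at 0.001–10 μM were preincubated for 10 min in pH 7.4 buffer with 137 mM NaCl; output is %-inhibition or IC50.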

SD rats = test: Oral Glucose Tolerance Test (OGTT) in SD rats: blood glucose excursion AUC and urine glucose excretion; type: in vivo, rat; conditions: mean ± SE; for Urine Glucose Excretion (g/0-4 hr): n = 8
Procedure: Biological Example 2: In Vivo Assay
Oral Glucose Tolerance Test (OGTT) in SD Rats
Overnight fasted SD rats were allocated into vehicle or test compound treatment groups based on their body weights (n=8 in each group). The animals were orally dosed with vehicle or test compound at a volume of 10 ml/kg at 30-minute prior to OGTT. The animals then received an OGTT challenge with 2 g/kg (50% glucose solution at the volume of 4 ml/kg, orally). The animals were immediately transferred into metabolic cages after they were dosed with the glucose. Blood glucose levels were measured at 0 (pre-OGTT), 30, 60, and 120 minutes after OGTT using one-touch Glucometer. Blood glucose excursion AUC (area under the curve of blood glucose) was determined from the blood glucose levels measured at the timepoints.
Table 9 below, presents the measured efficacy of the test compound(s), expressed as the percentage (%) of blood glucose AUC vs that in vehicle group. The data is interpreted such that, the smaller the percentage of blood glucose AUC of compound vs vehicle, the greater the efficacy of the test compound. Urine volume and urine glucose concentrations (tested by using Olympus system with Genzyme diagnostics assay reagent) were measured to determine the urine glucose excretion (UGE) in 4-hr period after OGTT (0-4 hours).

human SGLT1 = molecular target: T2, human SGLT1 (Homo sapiens, UniProt P13866); test: SGLT1 in vitro assay: Na-dependent 14C-AMG uptake in CHO-K1 cells stably expressing human SGLT1; type: cell-based; conditions: for inhibition at 0.3 µM: read-out: SGLT1 % Inh @ 0.3 μM
T2 construct: expressed in transfected cells
T2 sequence (P13866 1-664): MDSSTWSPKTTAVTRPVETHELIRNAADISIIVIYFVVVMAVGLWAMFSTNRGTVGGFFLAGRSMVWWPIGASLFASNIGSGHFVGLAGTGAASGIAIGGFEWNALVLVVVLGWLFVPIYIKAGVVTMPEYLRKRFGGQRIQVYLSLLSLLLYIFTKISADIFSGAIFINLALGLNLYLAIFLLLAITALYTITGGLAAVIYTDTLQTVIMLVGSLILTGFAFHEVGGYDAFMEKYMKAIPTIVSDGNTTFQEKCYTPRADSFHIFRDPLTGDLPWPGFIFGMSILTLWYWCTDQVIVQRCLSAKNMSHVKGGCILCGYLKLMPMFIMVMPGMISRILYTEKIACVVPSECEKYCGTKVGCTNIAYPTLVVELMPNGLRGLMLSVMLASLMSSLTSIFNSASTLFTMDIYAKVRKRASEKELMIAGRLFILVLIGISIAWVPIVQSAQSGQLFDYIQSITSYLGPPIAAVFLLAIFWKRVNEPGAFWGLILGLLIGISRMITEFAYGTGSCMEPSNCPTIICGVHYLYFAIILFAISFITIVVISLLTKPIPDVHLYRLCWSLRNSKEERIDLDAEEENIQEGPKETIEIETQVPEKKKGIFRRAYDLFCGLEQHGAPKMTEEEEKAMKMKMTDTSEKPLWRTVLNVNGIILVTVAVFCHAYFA
Procedure, shortened: as §1

[1] = Rattus norvegicus, 2 h, oral dose 1 mg/kg, n = 8, read-out: 120-min Blood Glucose AUC vs Vehicle (%)
[2] = Rattus norvegicus, 2 h, oral dose 10 mg/kg, n = 8, read-out: 120-min Blood Glucose AUC vs Vehicle (%)
[3] = CHO-K1 cells stably expressing human SGLT2, 14C-AMG uptake, compounds of formula (I) where R0 is fluoro
[4] = CHO-K1 cells stably expressing human SGLT1, 14C-AMG uptake, compounds of formula (I) where R0 is fluoro
[5] = @ 0.3 μM, CHO-K1 cells stably expressing human SGLT2, 14C-AMG uptake
[6] = @ 0.3 μM, CHO-K1 cells stably expressing human SGLT1, 14C-AMG uptake

SMILES | inhibition at 0.3 µM (human SGLT2; 0.3 μM, CHO-K1 cells expressing human SGLT2) [%] | IC50 (human SGLT2; CHO-K1 cells expressing human SGLT2, 14C-AMG uptake) [nM] | response vs control in vivo at 1 mg/kg (SD rats; [1]) [%] | response vs control in vivo at 10 mg/kg (SD rats; [2]) [%] | Urine Glucose Excretion (g/0-4 hr) (SD rats; oral dose 1 mg/kg) | Urine Glucose Excretion (g/0-4 hr) (SD rats; oral dose 10 mg/kg) | inhibition at 0.3 µM (human SGLT1; 0.3 μM, CHO-K1 cells expressing human SGLT1) [%] | IC50 (human SGLT1; CHO-K1 cells expressing human SGLT1, 14C-AMG uptake) [nM] | IC50 (human SGLT2; [3]) [nM] | IC50 (human SGLT1; [4]) [nM] | inhibition at 0.3 µM (human SGLT2; [5]) [%] | response vs control in vivo at 3 mg/kg (SD rats; Rattus norvegicus, 2 h, oral dose 3 mg/kg, n = 8, read-out: 120-min Blood Glucose AUC vs Vehicle (%)) [%] | Urine Glucose Excretion (g/0-4 hr) (SD rats; oral dose 3 mg/kg) | inhibition at 0.3 µM (human SGLT1; [6]) [%]
COc1cc(O)c([C@@H]2O[C@H](CO)[C@@](C)(F)[C@H](O)[C@H]2O)cc1Cc1ccc2c(c1)OCCO2 [Compound 6, (2S,3R,4R,5S,6R)-2-(5-((2,3-dihydrobenzo[b][1,4]dioxin-6-yl)methyl)-2-hydroxy-4-methoxyphenyl)-5-fluoro-6-(hydroxymethyl)-5-methyl-tetrahydro-2H-pyran-3,4-diol] | 92.8 | 4.3 | 71.6 ± 0.7 | 55.5 ± 1.7 | 0.000 | 0.047 ± 0.008 | 72.6 | 37 | – | – | – | – | – | –
Cc1cc(O)c([C@@H]2O[C@H](CO)C(F)(F)[C@H](O)[C@H]2O)cc1Cc1cc2ccccc2s1 [Compound 25, (2S,3R,4R,6R)-2-(5-(benzo[b]thiophen-2-ylmethyl)-2-hydroxy-4-methylphenyl)-5,5-difluoro-6-(hydroxymethyl)tetrahydro-2H-pyran-3,4-diol] | – | – | 67.8 ± 1.7 | 36.5 ± 1.1 | 0.001 | 0.499 ± 0.04 | – | – | 3.8 | 56 | – | – | – | –
CCc1ccc(Cc2cc([C@@H]3O[C@H](CO)C(F)(F)[C@H](O)[C@H]3O)c(O)c3c2OCC3)cc1 [Compound 30] | – | – | 86 ± 3.4 | 72 ± 2.3 | 0.001 ± 0.0001 | 0.001 ± 0.0002 | – | – | 7.2 | 145 | 62.4 | 80.3 ± 1.6 | 0.001 ± 0.0002 | 56.7
CCc1cc(O)c([C@@H]2O[C@H](CO)C(F)(F)[C@H](O)[C@H]2O)cc1Cc1ccc(OC)cc1 [Compound 88, (2S,3R,4R,6R)-2-(4-ethyl-2-hydroxy-5-(4-methoxybenzyl)phenyl)-5,5-difluoro-6-(hydroxymethyl)-tetrahydro-2H-pyran-3,4-diol] | – | – | 65.9 ± 1.8 | 41.6 ± 1.1 | 0.046 ± 0.014 | 0.349 ± 0.023 | – | – | 1.7 | 41 | 88.6 | – | – | 77.2
COc1ccc(Cc2cc([C@@H]3O[C@H](CO)C(F)(F)[C@H](O)[C@H]3O)c(O)cc2OC)cc1 [Compound 91, (2S,3R,4R,6R)-5,5-difluoro-2-(2-hydroxy-4-methoxy-5-(4-methoxybenzyl)phenyl)-6-(hydroxymethyl)-tetrahydro-2H-pyran-3,4-diol] | – | – | 61.6 ± 3.9 | 41.3 ± 2.3 | 0.026 ± 0.007 | 0.089 ± 0.01 | – | – | 3.2 | 74 | 76.3 | – | – | 74.3
